In the supplement of paper PMC9013687:
± gives the standard deviation of the averaged measurements.

Key:
[1] = tested on: Danio rerio embryo; experiment: EC50 Eye-jaw distance_Decrease; settings: exposure time: 4 dpf
Method: (§1)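 Zebrafish embryos (UFZ-OBI strain) were exposed from 2 hpf for 48 h (2 dpf) or 96 h (4 dpf) at 28 °C; spontaneous tail coiling was scored at 25 hpf. Morphological features from automated image analysis (FishInspector), heart rate and locomotor response were fitted with drc models. Quantal endpoints were dichotomised at 2.5 SD from controls and fitted with a log-logistic model; heart rate, pigmentation and STC were normalised to the replicate control mean. Betamethasone was tested as betamethasone dipropionate, diflorasone as diflorasone diacetate.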

[2] = tested on: Danio rerio embryo; experiment: EC10 Pericard size_Increase; higher = less potent
Method: as §1

[3] = tested on: Danio rerio embryo; experiment: EC10 Eye-jaw distance_Decrease; higher = less potent; settings: exposure time: 4 dpf
Method: as §1

[4] = tested on: Danio rerio embryo; experiment: EC10 Pigmentation decrease; higher = less potent; settings: exposure time: 4 dpf
Method: as §1

[5] = tested on: Danio rerio embryo; experiment: spontaneous tail coiling frequency (coils/min/embryo); higher = more spontaneous movement; settings: 25 hpf
Method: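 Spontaneous tail coilings of zebrafish embryos exposed from 2 hpf were recorded at 24-25 hpf in 1-min videos and detected by a KNIME workflow from grey-value variance. Betamethasone was tested as the dipropionate, diflorasone as the diacetate.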

[6] = tested on: Danio rerio embryo; experiment: EC20 Any effect; higher = less potent
Method: as §1

[7] = tested on: Danio rerio embryo
Method: as §1

[8] = tested on: Danio rerio embryo; experiment: EC20 Pigmentation decrease; higher = less potent; settings: exposure time: 4 dpf
Method: as §1

[9] = tested on: Danio rerio embryo; experiment: EC10 Any effect; higher = less potent; settings: exposure time: 2 dpf
Method: as §1

[10] = tested on: Danio rerio embryo; experiment: EC20 Pericard size_Increase; higher = less potent
Method: as §1

[11] = tested on: Danio rerio embryo; experiment: EC20 Eye-jaw distance_Decrease; higher = less potent; settings: exposure time: 4 dpf
Method: as §1

[12] = tested on: Danio rerio embryo; experiment: EC50 Pericard size_Increase
Method: as §1

[13] = tested on: Danio rerio embryo; experiment: EC10 Bladder size_Decrease; higher = less potent; settings: exposure time: 4 dpf
Method: as §1

[14] = tested on: Danio rerio embryo; experiment: EC50 Bladder size_Decrease; settings: exposure time: 4 dpf
Method: as §1

[15] = tested on: Danio rerio embryo; experiment: EC10 Lack of SB; higher = less potent; settings: exposure time: 4 dpf
Method: as §1

[16] = tested on: Danio rerio embryo; settings: exposure time: 4 dpf
Method: as §1

[17] = tested on: Danio rerio embryo; experiment: EC20 Bladder size_Decrease; higher = less potent; settings: exposure time: 4 dpf
Method: as §1

[18] = tested on: Danio rerio embryo; experiment: EC20 Lack of SB; higher = less potent; settings: exposure time: 4 dpf
Method: as §1

CCC(=O)OCC(=O)[C@@]1(OC(=O)CC)[C@@H](C)C[C@H]2[C@@H]3CCC4=CC(=O)C=C[C@]4(C)[C@@]3(F)[C@@H](O)C[C@@]21C [betamethasone dipropionate]
Settings | EC10 Any effect [nM] | EC10 Eye-jaw distance Decrease [nM] | EC10 Pigmentation decrease [nM] | EC20 Eye-jaw distance Decrease [nM] | EC20 Pigmentation decrease [nM] | EC50 Eye-jaw distance Decrease [nM]
[1] | – | – | – | – | – | 13100
[3] | – | 3 | – | – | – | –
[4] | – | – | 1610 | – | – | –
[8] | – | – | – | – | 8440 | –
[9] | 0.192 | – | – | – | – | –
[11] | – | – | – | 64 | – | –

Settings | EC10 Pericard size Increase [nM] | EC20 Any effect [nM] | EC20 Pericard size Increase [nM] | EC50 Any effect [nM] | EC50 Pericard size Increase [nM] | spontaneous tail coiling frequency
[2], exposure time: 2 dpf | 70 | – | – | – | – | –
[5], 0.02 µM | – | – | – | – | – | 2.32
[5], 0.099 µM | – | – | – | – | – | 1.86
[5], 0.198 µM | – | – | – | – | – | 2.45
[5], 0.991 µM | – | – | – | – | – | 3.42
[5], 1.24 µM | – | – | – | – | – | 3.65 ± 0.45
[5], 2.48 µM | – | – | – | – | – | 4 ± 0.071
[5], 3.964 µM | – | – | – | – | – | 2.3
[5], 4.95 µM | – | – | – | – | – | 3.4 ± 0.27
[5], 9.909 µM | – | – | – | – | – | 1.97
[5], 9.91 µM | – | – | – | – | – | 3.29 ± 0.34
[5], 19.82 µM | – | – | – | – | – | 3.34 ± 0.88
[6], exposure time: 2 dpf | – | 4.31 | – | – | – | –
[6], exposure time: 4 dpf | – | 0.298 | – | – | – | –
[7], exposure time: 2 dpf | – | – | – | 882 | – | –
[7], exposure time: 4 dpf | – | – | – | 253 | – | –
[10], exposure time: 2 dpf | – | – | 437 | – | – | –
[10], exposure time: 4 dpf | – | – | 0.209 | – | – | –
[12], exposure time: 2 dpf | – | – | – | – | 10100 | –
[12], exposure time: 4 dpf | – | – | – | – | 1350 | –

CC(=O)OCC(=O)[C@@]1(OC(C)=O)[C@@H](C)C[C@H]2[C@@H]3C[C@H](F)C4=CC(=O)C=C[C@]4(C)[C@@]3(F)[C@@H](O)C[C@@]21C [diflorasone diacetate]
Settings | EC10 Bladder size Decrease [nM] | EC10 Eye-jaw distance Decrease [nM] | EC10 Lack of SB [nM] | EC20 Bladder size Decrease [nM] | EC20 Eye-jaw distance Decrease [nM] | EC20 Lack of SB [nM] | EC50 Bladder size Decrease [nM] | EC50 Eye-jaw distance Decrease [nM] | EC50 Lack of SB [nM]
[1] | – | – | – | – | – | – | – | 2380 | –
[3] | – | 4 | – | – | – | – | – | – | –
[11] | – | – | – | – | 41 | – | – | – | –
[13] | 37 | – | – | – | – | – | – | – | –
[14] | – | – | – | – | – | – | 176 | – | –
[15] | – | – | 45 | – | – | – | – | – | –
[16] | – | – | – | – | – | – | – | – | 379
[17] | – | – | – | 66 | – | – | – | – | –
[18] | – | – | – | – | – | 99 | – | – | –

Settings | EC10 Pericard size Increase [nM] | EC20 Pericard size Increase [nM] | EC50 Pericard size Increase [nM] | spontaneous tail coiling frequency
[2], exposure time: 4 dpf | 25 | – | – | –
[5], 0.63 µM | – | – | – | 2.46
[5], 1.2 µM | – | – | – | 2.87
[5], 1.26 µM | – | – | – | 2.52
[5], 2 µM | – | – | – | 2.33
[5], 2.5 µM | – | – | – | 2.17
[5], 3 µM | – | – | – | 1.89
[5], 4 µM | – | – | – | 2.36
[5], 6 µM | – | – | – | 2.7
[5], 10.1 µM | – | – | – | 1.56
[10], exposure time: 4 dpf | – | 127 | – | –
[12], exposure time: 4 dpf | – | – | 2080 | –
